Assay results taken from patent publication US20100317524A1, “Sulfonylureas” (Bayer CropScience AG, priority 2005, published 2010).

Assays:
[1] = tested on: weed plants such as Sinapis alba, Chrysanthemum segetum, Avena sativa, Stellaria media, Echinochloa crus-galli, Lolium multiflorum, Setaria viridis, Abutilon …; assay: Pre-emergence effect on weeds (greenhouse pot test, visual scoring); type: in vivo; conditions: applied pre-emergence at a rate of 0.3 kg or less of active substance per hectare; visual scoring after 3 to 4 weeks vs untreated controls
Text: Seeds or sections of rhizome from monocot and dicot weed plants were laid out in sandy loam soil in cardboard pots, and covered with soil. The compounds of the invention, formulated as wettable powders or emulsifiable concentrates, were then applied, in the form of aqueous suspensions or emulsions, at various dosages, onto the surface of the covering earth, at an application rate of 600 to 800 l of water per hectare (converted). Following the treatment, the pots were placed in a greenhouse and maintained under good growth conditions for the weeds. Visual scoring of the plant damage or emergence damage was made when the test plants had emerged, after a test time of 3 to 4 weeks, in comparison to untreated controls.

[2] = tested on: weed plants such as Sinapis alba, Echinochloa crus-galli, Lolium multiflorum, Chrysanthemum segetum, Setaria viridis, Abutilon theophrasti, Amaranthus …; assay: Post-emergence effect on weeds (greenhouse pot test, visual scoring); type: in vivo; conditions: applied post-emergence (three-leaf stage) at a rate of 0.3 kg or less of active substance per hectare; visual scoring after about 3 to 4 weeks vs untreated controls
Protocol: Seeds or sections of rhizome from monocot and dicot broadleaf weeds were laid out in sandy loam soil in plastic pots, covered with earth, and cultivated in a greenhouse under good growth conditions. Three weeks after sowing, the test plants were treated at the three-leaf stage. The compounds of the invention, formulated as wettable powders or as emulsion concentrates, were sprayed in different dosages onto the green parts of the plants, at an application rate of 600 to 800 l of water per hectare (converted). After the test plants had stood in the greenhouse under optimum growth conditions for a period of about 3 to 4 weeks, the effect of the products was scored visually in comparison to untreated controls.

Cc1cc(C)nc(NC(=O)NS(=O)(=O)c2c(I)cccc2OS(C)(=O)=O)n1 [Compound 1.471]
herbicidal action against weed plants, pre-emergence [1]: very good herbicidal action | herbicidal action against weed plants, post-emergence [2]: very good herbicidal action

COc1cc(Cl)nc(NC(=O)NS(=O)(=O)c2c(I)cccc2OS(C)(=O)=O)n1 [Compound 1.472]
herbicidal action against weed plants, pre-emergence [1]: very good herbicidal action | herbicidal action against weed plants, post-emergence [2]: very good herbicidal action

COc1nc(NC(=O)NS(=O)(=O)c2c(I)cccc2OS(C)(=O)=O)nc(OC)n1 [Compound 1.476]
herbicidal action against weed plants, pre-emergence [1]: very good herbicidal action | herbicidal action against weed plants, post-emergence [2]: very good herbicidal action

COc1cc(OC)nc(NC(=O)NS(=O)(=O)c2c(I)cccc2OS(=O)(=O)N(C)C)n1 [Compound 1.507]
herbicidal action against weed plants, pre-emergence [1]: very good herbicidal action | herbicidal action against weed plants, post-emergence [2]: very good herbicidal action

Cc1cc(C)nc(NC(=O)NS(=O)(=O)c2c(I)cccc2OS(=O)(=O)N(C)C)n1 [Compound 1.509]
herbicidal action against weed plants, pre-emergence [1]: very good herbicidal action | herbicidal action against weed plants, post-emergence [2]: very good herbicidal action

COc1cc(Cl)nc(NC(=O)NS(=O)(=O)c2c(I)cccc2OS(=O)(=O)N(C)C)n1 [Compound 1.510]
herbicidal action against weed plants, pre-emergence [1]: very good herbicidal action | herbicidal action against weed plants, post-emergence [2]: very good herbicidal action

COc1nc(NC(=O)NS(=O)(=O)c2c(I)cccc2OS(=O)(=O)N(C)C)nc(OC)n1 [Compound 1.511]
herbicidal action against weed plants, pre-emergence [1]: very good herbicidal action | herbicidal action against weed plants, post-emergence [2]: very good herbicidal action

CSc1cccc(I)c1S(=O)(=O)NC(=O)Nc1nc(C)cc(C)n1 [Compound 1.550]
herbicidal action against weed plants, pre-emergence [1]: very good herbicidal action | herbicidal action against weed plants, post-emergence [2]: very good herbicidal action

COc1cc(Cl)nc(NC(=O)NS(=O)(=O)c2c(I)cccc2SC)n1 [Compound 1.551]
herbicidal action against weed plants, pre-emergence [1]: very good herbicidal action | herbicidal action against weed plants, post-emergence [2]: very good herbicidal action

CCCCOc1cccc(I)c1S(=O)(=O)NC(=O)Nc1nc(C)nc(OC)n1 [Compound 1.553]
herbicidal action against weed plants, pre-emergence [1]: very good herbicidal action | herbicidal action against weed plants, post-emergence [2]: very good herbicidal action

CCCCOc1cccc(I)c1S(=O)(=O)NC(=O)Nc1nc(C)cc(C)n1 [Compound 1.554]
herbicidal action against weed plants, pre-emergence [1]: very good herbicidal action | herbicidal action against weed plants, post-emergence [2]: very good herbicidal action

CCCCOc1cccc(I)c1S(=O)(=O)NC(=O)Nc1nc(Cl)cc(OC)n1 [Compound 1.555]
herbicidal action against weed plants, pre-emergence [1]: very good herbicidal action | herbicidal action against weed plants, post-emergence [2]: very good herbicidal action

CCCCOc1cccc(I)c1S(=O)(=O)NC(=O)Nc1nc(OC)nc(OC)n1 [Compound 1.556]
herbicidal action against weed plants, pre-emergence [1]: very good herbicidal action | herbicidal action against weed plants, post-emergence [2]: very good herbicidal action

CCC(C)Oc1cccc(I)c1S(=O)(=O)NC(=O)Nc1nc(C)nc(OC)n1 (centres unmarked) [Compound 1.557]
herbicidal action against weed plants, pre-emergence [1]: very good herbicidal action | herbicidal action against weed plants, post-emergence [2]: very good herbicidal action

CCC(C)Oc1cccc(I)c1S(=O)(=O)NC(=O)Nc1nc(C)cc(C)n1 (centres unmarked) [Compound 1.558]
herbicidal action against weed plants, pre-emergence [1]: very good herbicidal action | herbicidal action against weed plants, post-emergence [2]: very good herbicidal action

CCC(C)Oc1cccc(I)c1S(=O)(=O)NC(=O)Nc1nc(OC)nc(OC)n1 (centres unmarked) [Compound 1.560]
herbicidal action against weed plants, pre-emergence [1]: very good herbicidal action | herbicidal action against weed plants, post-emergence [2]: very good herbicidal action

COc1cc(Cl)nc(NC(=O)NS(=O)(=O)c2c(I)cccc2OCC(C)C)n1 [Compound 1.563]
herbicidal action against weed plants, pre-emergence [1]: very good herbicidal action | herbicidal action against weed plants, post-emergence [2]: very good herbicidal action

COc1cc(OC)nc(NC(=O)NS(=O)(=O)c2c(OC)ccc(Cl)c2I)n1 [Compound 1.598]
herbicidal action against weed plants, pre-emergence [1]: very good herbicidal action | herbicidal action against weed plants, post-emergence [2]: very good herbicidal action

COc1nc(C)nc(NC(=O)NS(=O)(=O)c2c(OC)ccc(Cl)c2I)n1 [Compound 1.599]
herbicidal action against weed plants, pre-emergence [1]: very good herbicidal action | herbicidal action against weed plants, post-emergence [2]: very good herbicidal action

COc1ccc(Cl)c(I)c1S(=O)(=O)NC(=O)Nc1nc(C)cc(C)n1 [Compound 1.600]
herbicidal action against weed plants, pre-emergence [1]: very good herbicidal action | herbicidal action against weed plants, post-emergence [2]: very good herbicidal action

COc1cc(Cl)nc(NC(=O)NS(=O)(=O)c2c(OC)ccc(Cl)c2I)n1 [Compound 1.601]
herbicidal action against weed plants, pre-emergence [1]: very good herbicidal action | herbicidal action against weed plants, post-emergence [2]: very good herbicidal action

COc1nc(NC(=O)NS(=O)(=O)c2c(OC)ccc(Cl)c2I)nc(OC)n1 [Compound 1.602]
herbicidal action against weed plants, pre-emergence [1]: very good herbicidal action | herbicidal action against weed plants, post-emergence [2]: very good herbicidal action
